Test results: PubChem BioAssay (NCI)
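Five concentrations, 48 hours, 96-well plates. GI50 is the concentration that inhibits growth by half. At the TGI there is no net growth.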

Experiments:
Experiment in all cases: inhibition of tumour cell growth, NCI panel, 48 h
[1] = system: TK-10 renal
[2] = system: HS 578T breast
[3] = system: SK-OV-3 ovarian
[4] = system: HOP-62 NSCLC
[5] = system: NCI-H522 lung
[6] = system: CAKI-1 renal
[7] = system: M14 melanoma
[8] = system: SW-620 colon
[9] = system: HOP-92 NSCLC
[10] = system: NCI-H226 lung
[11] = system: PC-3 prostate

Compound | TGI [1] | TGI [2] | TGI [3] | TGI [4] | TGI [5] | TGI [6] | TGI [7] | TGI [8] | TGI [9] | TGI [10] | TGI [11] | GI50 [1] | GI50 [2] | GI50 [3] | GI50 [5] | GI50 [6] | GI50 [8] | GI50 [11] | GI50 [9] | GI50 [10]
COc1cc(/C=C2/SC(c3ccccc3)N(c3ccccc3Cl)C2=O)cc(OC)c1OC (stereo not given) | > 100 µM | > 100 µM | 63.4 µM | > 100 µM | 32.3 µM | > 100 µM | > 100 µM | > 100 µM | > 100 µM | > 100 µM |  |  |  |  |  |  |  |  |  | 
O=C(O)C1CCCN(CCc2c[nH]c3ccccc23)C1 (stereo not given) | > 100 µM |  | > 100 µM | > 100 µM | > 100 µM | > 100 µM | > 100 µM | > 100 µM | > 100 µM | > 100 µM | > 100 µM |  |  |  |  |  |  |  |  | 
CCOC(=O)c1c(NC(=O)c2cccs2)sc2c1CCC2 | > 100 µM | > 100 µM |  | > 100 µM |  | > 100 µM | > 100 µM |  |  | > 100 µM | > 100 µM |  |  |  |  |  |  |  |  | 
O=C1N=C(SC2OC(CO)C(O)C(O)C2O)S/C1=C\c1ccccc1 (stereo not given) | > 100 µM | > 100 µM | > 100 µM | > 100 µM | > 100 µM | > 100 µM | > 100 µM | > 100 µM |  | > 100 µM | > 100 µM |  |  |  |  |  |  |  |  | 
COC(=O)C1=C(O)C(C(=O)OC)[C@]2(O)[C@H](C(=O)OC)[C@H]1C[C@@H](c1ccc(Cl)cc1)[C@H]2C(=O)OC (stereo not given in full) | 33.5 µM | 30.2 µM | 23.4 µM | 24 µM |  | > 100 µM | 19.5 µM | > 100 µM | 73.6 µM | 38.2 µM | 18.8 µM |  |  |  |  |  |  |  |  | 
Cc1cc(C)c2c(O)c(S(=O)(=O)c3ccc(Cl)cc3)c(=O)oc2c1 |  | > 100 µM | > 100 µM | > 100 µM |  | > 100 µM | > 100 µM | > 100 µM | > 100 µM | > 100 µM | > 100 µM |  |  |  |  |  |  |  |  | 
O=c1[nH]nc(-c2ccccc2)n1-c1ccncc1 | > 100 µM | > 100 µM |  | > 100 µM | > 100 µM | > 100 µM | > 100 µM | > 100 µM | > 100 µM | > 100 µM | > 100 µM |  |  |  |  |  |  |  |  | 
CC1(C)C2CCC(CN)(C2)C1N (stereo not given) | > 100 µM | > 100 µM | > 100 µM | > 100 µM |  | > 100 µM | > 100 µM | > 100 µM | > 100 µM | > 100 µM | > 100 µM |  |  |  |  |  |  |  |  | 
OC1(c2ccccc2)C2CCN(CC2)C1CN1CCOCC1 (stereo not given) | > 100 µM |  | > 100 µM | > 100 µM | > 100 µM | > 100 µM | > 100 µM | > 100 µM |  | > 100 µM | > 100 µM |  |  |  |  |  |  |  |  | 
COc1ccc2c(c1)C(=O)Cc1ccccc1CC2 | > 100 µM |  | > 100 µM |  | > 100 µM | > 100 µM | > 100 µM | > 100 µM | > 100 µM | > 100 µM |  |  |  |  |  |  |  |  |  | 
CCC(C)(C)C1CCC2c3c([nH]c4ccccc34)C3C(=O)N(c4ccc(OC)cc4)C(=O)C3C2C1 (stereo not given) | 56.2 µM |  | 77.6 µM | 23.2 µM | 20.6 µM | 22.7 µM | > 100 µM | > 100 µM |  | 37.3 µM | 26.6 µM |  |  |  |  |  |  |  |  | 
O=[N+]([O-])c1ccc2c(c1)S(=O)(=O)N1Cc3ccccc3CCN21 | > 100 µM | > 100 µM |  | > 100 µM | > 100 µM | > 100 µM | > 100 µM | > 100 µM | > 100 µM | > 100 µM | > 100 µM |  |  |  |  |  |  |  |  | 
N#Cc1c(=O)n(-c2ccccc2)c(O)c2c(N)n[nH]c12 | > 100 µM | > 100 µM | > 100 µM |  | > 100 µM | > 100 µM | > 100 µM | > 100 µM | > 100 µM | > 100 µM | > 100 µM |  |  |  |  |  |  |  |  | 
Nc1cccnc1NCC1(CO)CCCC1 | > 100 µM | > 100 µM | > 100 µM | > 100 µM | > 100 µM | > 100 µM |  | > 100 µM |  | > 100 µM | > 100 µM |  |  |  |  |  |  |  |  | 
OCCCNc1nc(=S)[nH]c2[nH]ncc12 | > 100 µM | 85.1 µM | > 100 µM |  | > 100 µM | > 100 µM |  | > 100 µM | > 100 µM | 72.6 µM | > 100 µM | 33.6 µM | 30.7 µM | 48.7 µM | 26.1 µM | 43.3 µM | 44.3 µM | 70.2 µM | 65.6 µM | 27.6 µM
OC1(c2ccc(Cl)cc2)C(N2CCCC2)c2ccccc2C2=NCCN21 (stereo not given) | 40 µM | 89.9 µM | 57.6 µM | > 100 µM |  | 94.6 µM | 31.7 µM | > 100 µM | 62.9 µM |  | > 100 µM |  |  |  |  |  |  |  |  | 
COC(=O)C1=C(O)C(C(=O)OC)[C@]2(O)[C@H](C(=O)OC)[C@H]1C[C@@H](c1ccc(OC)c(OC)c1)[C@H]2C(=O)OC (stereo not given in full) | > 100 µM | > 100 µM | 68.2 µM | > 100 µM |  | > 100 µM | > 100 µM | > 100 µM | > 100 µM | 29 µM | > 100 µM |  |  |  |  |  |  |  |  | 
O=c1[nH]c(=O)n(CCOc2ccccc2)cc1Nc1ccccc1 |  | > 100 µM |  | 87.4 µM | > 100 µM | > 100 µM | > 100 µM | > 100 µM | > 100 µM |  | > 100 µM |  |  |  |  |  |  |  |  | 
O=C1c2[nH]c3ccc(Br)cc3c2CCN1Cc1ccc(Cl)cc1 | 27.7 µM | 43.3 µM |  | 26.4 µM | 37.9 µM | 34.4 µM | 28.5 µM | 34.8 µM | 33.4 µM |  | 19.4 µM |  |  |  |  |  |  |  |  | 
Cc1cc(S(=O)(=O)Nc2nc(N)n(-c3ccccn3)n2)c(S)cc1Cl | > 100 µM | > 100 µM | > 100 µM | > 100 µM | > 100 µM | > 100 µM | > 100 µM | > 100 µM |  | > 100 µM | > 100 µM |  |  |  |  |  |  |  |  | 
c1ccc2c(c1)CC1=C(O2)c2ccccc2OC1 | 94.3 µM |  | > 100 µM | > 100 µM | 44.5 µM | 49.5 µM | > 100 µM | 42.2 µM | 95 µM | > 100 µM | > 100 µM |  |  |  |  |  |  |  |  | 
